Assay results: US20220033407A1, “N-(pyridin-2-ylsulfonyl)cyclopropanecarboxamide Derivatives and their Use in the Treatment of Disease” (NOVARTIS AG, priority 2018, published 2022)

Biological target: T1, delF508-CFTR-HRP (Homo sapiens, UniProt P13569, DEL508-508)
T1 construct: expressed in transfected cells
Assay: Measurement of delF508-CFTR-HRP surface expression in CFBE41o- cells (HRP luminescence);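 on DelF508-CFTR-HRP Amax %: percent efficacy relative to a reference CFTR corrector compound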
Format: cell-based
Settings: for Emax: CFBE41o-, read-out: DelF508-CFTR-HRP Amax %; for EC50: mean of at least two replicates
Excerpt: Measurement of delF508-CFTR-HRP Surface Expression in CFBE41o-Cells
This assay quantifies the cell surface expressions of the mutant CFTR channel using an extracellular HRP tag.
A cellular assay was developed to measure surface expression of horseradish peroxidase (HRP) tagged delF508-CFTR in the human bronchial epithelial immortalized CFBE41o-cell line (Phuan, P. W., et al, (2014) Molecular Pharmacology 86:42-51). Specifically, the HRP sequence was inserted into the fourth extracellular loop of delF508-CFTR and stably expressed in CFBE41o-cells. Cells were seeded in 384 well plate at a density of 5000 cells/well and incubated at 37° C. for 12 to 24 hours in medium (Gibco MEM #11095, 10% FBS, 10 mM HEPES, […], 200 μg/mL G418, 3 μg/mL Puromycin). The delF508-CFTR-HRP expression was induced with 500 ng/mL doxycycline (Sigma D-9891, dissolved in H2O and sterile filtered) in medium and the cells were incubated at 37° C. for 48 h. Old medium was removed and fresh medium was added containing 500 ng/mL doxycycline and unknown test compound at required test concentration in DMSO, not exceeding 0.5% final DMSO concentration. The highest concentration tested was 10 μM with a 10-point concentration response curve using a 3-fold dilution. After addition of compounds, the cells were incubated for 24 h at 37° C. On the final day, cells were washed four times in PBS containing 1 mM MgCl2 and 0.1 mM CaCl2. HRP-Substrate (SuperSignal ELISA Pico, Fisher #37069) 20 μl/well was added and the luminescence signal was determined (Viewlux, Perkin Elmer). Light was emitted upon addition of exogenous HRP-Substrate only when delF508-CFTR-HRP reached the cell surface and the HRP tag was accessible to the HRP-Substrate (note: HRP-Substrate cannot cross the lipid bilayer to reach delF508-CFTR-HRP misfolded within the cell).
The median activity for the lowest concentration of the compounds on each assay plate was calculated and this value was used to normalize the signal for each well on the respective plate. Three replicates at each concentrations for every compound were run to determine one EC50. The median value was determined and used to calculate compound activities as described below. Effective half maximal values (EC50) were calculated for each compound by performing logistic regression on measured dose-response data points using the equation: […]
where “Y” is the observed activity, “Bottom” is the lowest observed value, “Top” is the highest observed value, and the “Hill coefficient” gives the largest absolute value of the slope. The curve fitting is carried out by a curve fitting program implemented at GNF using Matlab (Mathworks). The dose response curves also were used to calculate Fold Change (FC) using the equation: […]
Compound efficacy relative to the reference compound 3-(6-(1-(2,2-difluorobenzo[d][1,3]dioxol-5-yl)cyclopropane-1-carboxamido)-3-methylpyridin-2-yl)benzoic acid was determined using the following formula: […]

T1 sequence (P13569 with tags, fused parts or gaps DEL508-508): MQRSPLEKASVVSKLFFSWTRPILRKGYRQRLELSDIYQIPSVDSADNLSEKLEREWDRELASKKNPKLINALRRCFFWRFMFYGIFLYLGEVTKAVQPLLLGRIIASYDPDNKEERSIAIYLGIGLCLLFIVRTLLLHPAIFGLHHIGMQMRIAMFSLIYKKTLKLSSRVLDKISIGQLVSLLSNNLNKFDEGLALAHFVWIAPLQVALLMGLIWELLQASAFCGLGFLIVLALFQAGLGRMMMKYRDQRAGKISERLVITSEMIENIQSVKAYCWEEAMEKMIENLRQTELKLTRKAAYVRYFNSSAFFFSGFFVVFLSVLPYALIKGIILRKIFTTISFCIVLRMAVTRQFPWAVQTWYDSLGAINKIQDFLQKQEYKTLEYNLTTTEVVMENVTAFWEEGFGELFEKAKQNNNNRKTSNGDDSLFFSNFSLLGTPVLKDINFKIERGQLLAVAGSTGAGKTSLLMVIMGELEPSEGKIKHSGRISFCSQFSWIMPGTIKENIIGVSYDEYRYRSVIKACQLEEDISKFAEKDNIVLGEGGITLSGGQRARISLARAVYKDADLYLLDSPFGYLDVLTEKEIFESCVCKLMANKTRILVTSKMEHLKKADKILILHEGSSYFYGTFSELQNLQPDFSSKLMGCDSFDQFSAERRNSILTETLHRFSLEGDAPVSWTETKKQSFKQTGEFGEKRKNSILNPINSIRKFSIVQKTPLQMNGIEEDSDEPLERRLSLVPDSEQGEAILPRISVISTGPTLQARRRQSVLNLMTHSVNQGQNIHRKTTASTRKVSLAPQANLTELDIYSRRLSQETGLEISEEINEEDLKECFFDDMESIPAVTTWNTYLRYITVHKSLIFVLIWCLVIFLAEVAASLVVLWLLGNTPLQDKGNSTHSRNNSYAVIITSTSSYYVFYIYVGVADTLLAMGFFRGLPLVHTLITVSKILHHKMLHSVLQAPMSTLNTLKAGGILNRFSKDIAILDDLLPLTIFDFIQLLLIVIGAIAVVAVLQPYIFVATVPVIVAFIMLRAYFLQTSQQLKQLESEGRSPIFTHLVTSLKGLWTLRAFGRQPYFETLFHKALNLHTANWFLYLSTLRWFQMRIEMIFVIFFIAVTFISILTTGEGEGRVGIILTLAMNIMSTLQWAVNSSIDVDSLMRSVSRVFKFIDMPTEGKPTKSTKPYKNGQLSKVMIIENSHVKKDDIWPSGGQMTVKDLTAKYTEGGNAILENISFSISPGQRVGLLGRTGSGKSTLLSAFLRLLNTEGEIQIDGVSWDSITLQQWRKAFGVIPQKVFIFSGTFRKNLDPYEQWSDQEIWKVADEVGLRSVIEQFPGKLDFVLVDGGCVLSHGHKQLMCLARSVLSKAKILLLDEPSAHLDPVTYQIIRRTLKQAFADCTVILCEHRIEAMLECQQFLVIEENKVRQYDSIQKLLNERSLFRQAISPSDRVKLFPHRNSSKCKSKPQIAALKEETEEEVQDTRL

Compound | Emax | EC50 | DelF508-CFTR-HRP Amax %
CC1(C)CCN(c2ccc(Cl)cc2OC2(C(=O)NS(=O)(=O)c3cccc(N4CCC(O)(C(F)(F)F)CC4)n3)CC2)CC1 [Example 10-9, 1-(5-chloro-2-(4,4-dimethylpiperidin-1-yl)phenoxy)-N-((6-(4-hydroxy-4-(trifluoromethyl)piperidin-1-yl)pyridin-2-yl)sulfonyl)cyclopropanecarboxamide] | 268% | 460 nM | 
CC1(O)CCN(c2cccc(S(=O)(=O)NC(=O)C3(Oc4cc(Cl)ccc4C4CC5(CCC5)C4)CCCC3)n2)C1 (single isomer, unassigned) [Example 7-18-2, 1-(5-Chloro-2-(spiro[3.3]heptan-2-yl)phenoxy)-N-((6-(3-hydroxy-3-methylpyrrolidin-1-yl)pyridin-2-yl)sulfonyl)cyclopentane-1-carboxamide] |  | 1670 nM | 371.9%
Cc1ccc(C)c(OC2(C(=O)NS(=O)(=O)c3cccc(NC[C@@H](C)O)n3)CCCC2)c1 [Example 4-4, (R)-1-(2,5-dimethylphenoxy)-N-((6-((2-hydroxypropyl)amino)pyridin-2-yl)sulfonyl)cyclopentane-1-carboxamide] | 84% | 4770 nM | 
CC1(C)CCN(c2ccc(Cl)cc2OC2(C(=O)NS(=O)(=O)c3cccc(N4CCC(C)(O)C4)n3)CC2)CC1 (single isomer, unassigned) [Example 9-39-2, 1-(5-Chloro-2-(4,4-dimethylpiperidin-1-yl)phenoxy)-N-((6-(3-hydroxy-3-methylpyrrolidin-1-yl)pyridin-2-yl)sulfonyl)cyclopropane-1-carboxamide] |  | 840 nM | 493.9%
CC1(C)CCN(c2ccc(Cl)cc2OC2(C(=O)NS(=O)(=O)c3cccc(N4CC5CCC(C4)O5)n3)CC2)CC1 [Example 9-40, N-((6-(8-Oxa-3-azabicyclo[3.2.1]octan-3-yl)pyridin-2-yl)sulfonyl)-1-(5-chloro-2-(4,4-dimethylpiperidin-1-yl)phenoxy)cyclopropane-1-carboxamide] | 693% | 1510 nM | 
CC(C)[C@H](CO)Nc1cccc(S(=O)(=O)NC(=O)C2(Oc3cc(Cl)ccc3N3CCC(C)(C)CC3)CC2)n1 [Example 9-38, (R)-1-(5-Chloro-2-(4,4-dimethylpiperidin-1-yl)phenoxy)-N-((6-((1-hydroxy-3-methylbutan-2-yl)amino)pyridin-2-yl)sulfonyl)cyclopropane-1-carboxamide] | 789% | 1470 nM | 
O=C(NS(=O)(=O)c1cccc(N2CC[C@H](O)C2)n1)C1(Oc2cc(Cl)ccc2-c2ccc3c(c2)OC(F)(F)O3)CC1 [Example 5-15, (S)-1-(5-Chloro-2-(2,2-difluorobenzo[d][1,3]dioxol-5-yl)phenoxy)-N-((6-(3-hydroxypyrrolidin-1-yl)pyridin-2-yl)sulfonyl)cyclopropane-1-carboxamide] | 361% | 2540 nM | 
Cc1ccc(C2CC(F)(F)C2)c(OC2(C(=O)NS(=O)(=O)c3cccc(N4CC(C)(O)C4)n3)CC2)c1 [Example 4-3, 1-(2-(3,3-Difluorocyclobutyl)-5-methylphenoxy)-N-((6-(3-hydroxy-3-methylazetidin-1-yl)pyridin-2-yl)sulfonyl)cyclopropanecarboxamide] | 158% | 4520 nM | 
Cc1ccc(C2CCCCC2)c(OC2(C(=O)NS(=O)(=O)c3cccc(N4CCC5(CCCC5N)CC4)n3)CC2)c1 (single isomer, unassigned) [Example 2-32-2, N-((6-(1-Amino-8-azaspiro[4.5]decan-8-yl)pyridin-2-yl)sulfonyl)-1-(2-cyclohexyl-5-methylphenoxy)cyclopropanecarboxamide] |  | 1900 nM | 283%
Cc1ccc(C2CC3(CCC3)C2)c(OC2(C(=O)NS(=O)(=O)c3cccc(N4CC[C@H](O)C4)n3)CC2)c1 [Example 4-19, (S)-N-((6-(3-Hydroxypyrrolidin-1-yl)pyridin-2-yl)sulfonyl)-1-(5-methyl-2-(spiro[3.3]heptan-2-yl)phenoxy)cyclopropane-1-carboxamide] | 626% | 1090 nM | 
Cc1ccc(C2CC2C(F)(F)F)c(OC2(C(=O)NS(=O)(=O)c3cccc(N)n3)CC2)c1 (single isomer, unassigned) [Example 1-3-1, N-((6-aminopyridin-2-yl)sulfonyl)-1-(5-methyl-2-(2-(trifluoromethyl)cyclopropyl)phenoxy)cyclopropane-1-carboxamide] |  | 4180 nM | 65%
Cc1ccc(C2CCC(C)(C)OC2)c(OC2(C(=O)NS(=O)(=O)c3cccc(N4CCC(O)(C(F)(F)F)CC4)n3)CC2)c1 (single isomer, unassigned) [Example 11-2-1, 1-(2-(6,6-Dimethyltetrahydro-2H-pyran-3-yl)-5-methylphenoxy)-N-((6-(4-hydroxy-4-(trifluoromethyl)piperidin-1-yl)pyridin-2-yl)sulfonyl)cyclopropane-1-carboxamide] |  | 1860 nM | 473.8%
O=C(NS(=O)(=O)c1cccc(N2CC[C@@H](O)C2)n1)C1(Oc2cc(Cl)ccc2N2CCC3(CC2)CC3)CC1 [Example 9-29, (R)-1-(5-Chloro-2-(6-azaspiro[2.5]octan-6-yl)phenoxy)-N-((6-(3-hydroxypyrrolidin-1-yl)pyridin-2-yl)sulfonyl)cyclopropanecarboxamide] | 691% | 950 nM | 
CC1(C)CN(c2ccc(Cl)cc2OC2(C(=O)NS(=O)(=O)c3cccc(N4CC[C@H](O)C4)n3)CC2)C1 [Example 9-21, (S)-1-(5-Chloro-2-(3,3-dimethylazetidin-1-yl)phenoxy)-N-((6-(3-hydroxypyrrolidin-1-yl)pyridin-2-yl)sulfonyl)cyclopropanecarboxamide] | 720% | 2280 nM | 
O=C(NS(=O)(=O)c1cccc(N2CC[C@H](O)C2)n1)C1(Oc2cc(Cl)ccc2OC2CCCC2)CC1 [Example 6-14, (S)-1-(5-chloro-2-(cyclopentyloxy)phenoxy)-N-((6-(3-hydroxypyrrolidin-1-yl)pyridin-2-yl)sulfonyl)cyclopropanecarboxamide] | 276% | 3240 nM | 
O=C(NS(=O)(=O)c1cccc(N2CC[C@H](O)C2)n1)C1(Oc2cc(Cl)ccc2-c2ccc3occc3c2)CC1 [Example 5-12, (S)-1-(2-(Benzofuran-5-yl)-5-chlorophenoxy)-N-((6-(3-hydroxypyrrolidin-1-yl)pyridin-2-yl)sulfonyl)cyclopropane-1-carboxamide] | 204% | 2470 nM | 
O=C(NS(=O)(=O)c1cccc(N2C[C@H]3CC[C@@H](O)[C@H]3C2)n1)C1(Oc2cc(Cl)ccc2N2CC3(CCCCC3)C2)CC1 [Example 9-3, 1-(5-chloro-2-(2-azaspiro[3.5]nonan-2-yl)phenoxy)-N-((6-((3aR,4R,6aS)-4-hydroxyhexahydrocyclopenta[c]pyrrol-2(1H)-yl)pyridin-2-yl)sulfonyl)cyclopropane-1-carboxamide] | 588% | 1350 nM | 
CC(C)(C)C1CCN(c2ccc(Cl)cc2OC2(C(=O)NS(=O)(=O)c3cccc(N4CC[C@H](O)C4)n3)CC2)CC1 [Example 9-34, (S)-1-(2-(4-(Tert-butyl)piperidin-1-yl)-5-chlorophenoxy)-N-((6-(3-hydroxypyrrolidin-1-yl)pyridin-2-yl)sulfonyl)cyclopropanecarboxamide] | 152% | 910 nM | 
Cc1ccc(OC2CCCCC2)c(OC2(C(=O)NS(=O)(=O)c3cccc(N4CC[C@H](O)C4)n3)CC2)c1 [Example 6-3, (S)-1-(2-(Cyclohexyloxy)-5-methylphenoxy)-N-((6-(3-hydroxypyrrolidin-1-yl)pyridin-2-yl)sulfonyl)cyclopropane-1-carboxamide] | 507% | 2780 nM | 
CC1(C)CCCN(c2ccc(Cl)cc2OC2(C(=O)NS(=O)(=O)c3cccc(N4CC[C@@](C)(O)C4)n3)CC2)C1 [Example 9-30, (R)-1-(5-Chloro-2-(3,3-dimethylpiperidin-1-yl)phenoxy)-N-((6-(3-hydroxy-3-methylpyrrolidin-1-yl)pyridin-2-yl)sulfonyl)cyclopropanecarboxamide] | 590% | 590 nM | 
Cc1ccc(C2CCC(C)(C)OC2)c(OC2(C(=O)NS(=O)(=O)c3cccc(N4CC[C@H](O)C4)n3)CC2)c1 (single isomer, unassigned) [Example 4-24-2] |  | 3000 nM | 249%
